From EP0942911B1, “BENZOPYRANOPYRROLE AND BENZOPYRANOPYRIDINE ALPHA-1 ADRENERGIC COMPOUNDS” (Abbott Laboratories, priority 1996, dated 1998)
Structures can show the parent of a compound that is named as a salt.

What was measured:
Experiment in all cases: biochemical
[1] = target: T1, α-1A adrenoreceptor (rat submaxillary gland) (Rattus norvegicus, UniProt P43140); assay type: binding; conditions: [3H]-prazosin radioligand; rat submaxillary gland membranes; read-out: Radioligand Binding (Ki, nM) 1A (Rat)
T1 sequence (P43140 1-466): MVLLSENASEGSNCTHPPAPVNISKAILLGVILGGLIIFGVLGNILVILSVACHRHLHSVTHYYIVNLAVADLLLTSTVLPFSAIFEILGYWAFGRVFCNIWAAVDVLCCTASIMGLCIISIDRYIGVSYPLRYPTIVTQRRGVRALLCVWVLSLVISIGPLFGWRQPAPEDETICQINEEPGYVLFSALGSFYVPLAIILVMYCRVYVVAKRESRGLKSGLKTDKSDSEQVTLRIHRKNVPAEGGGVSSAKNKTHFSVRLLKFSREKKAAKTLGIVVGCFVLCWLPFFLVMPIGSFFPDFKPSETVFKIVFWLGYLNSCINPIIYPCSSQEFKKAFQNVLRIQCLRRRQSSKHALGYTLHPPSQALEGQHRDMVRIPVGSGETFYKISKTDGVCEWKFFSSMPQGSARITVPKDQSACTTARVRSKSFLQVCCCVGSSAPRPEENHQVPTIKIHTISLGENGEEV
Summary of the method: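 Radioligand binding to α-1A sites in membrane homogenates of rat submaxillary gland, run after Greengrass and Bremner. Bound radioactivity counted by liquid scintillation.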

[2] = target: T2, α-1b adrenoreceptor (Mesocricetus auratus, UniProt P18841); assay type: binding, hamster; conditions: [3H]-prazosin radioligand; cloned receptor in LTK cell membranes; read-out: Radioligand Binding (Ki, nM) 1b (Hamster)
T2 sequence (P18841 1-515): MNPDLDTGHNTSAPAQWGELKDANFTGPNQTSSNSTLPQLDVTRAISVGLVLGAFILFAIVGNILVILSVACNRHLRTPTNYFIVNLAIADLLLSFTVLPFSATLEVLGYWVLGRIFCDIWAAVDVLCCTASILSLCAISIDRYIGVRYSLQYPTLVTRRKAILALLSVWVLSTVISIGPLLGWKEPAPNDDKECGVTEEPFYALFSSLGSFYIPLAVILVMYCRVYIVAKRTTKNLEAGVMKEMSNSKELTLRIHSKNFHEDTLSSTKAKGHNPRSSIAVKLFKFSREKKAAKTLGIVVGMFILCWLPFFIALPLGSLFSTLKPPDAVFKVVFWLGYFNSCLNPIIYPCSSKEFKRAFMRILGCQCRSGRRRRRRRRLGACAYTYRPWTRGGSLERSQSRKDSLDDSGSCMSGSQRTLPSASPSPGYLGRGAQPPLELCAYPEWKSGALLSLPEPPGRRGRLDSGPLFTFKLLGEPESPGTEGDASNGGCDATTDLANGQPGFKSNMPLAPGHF
Summary of the method: (§1)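 Cloned α-1a, α-1b and α-1d adrenoreceptors stably expressed in mouse LTK fibroblasts; membranes prepared in 50 mM Tris-HCl, pH 7.4. Radioligand binding per Greengrass and Bremner method, scintillation counting. The α-1A subtype used rat submaxillary gland membranes.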

[3] = target: T3, α-1a adrenoreceptor (Bos taurus, UniProt P18130); assay type: binding, bovine; conditions: [3H]-prazosin radioligand; cloned receptor in LTK cell membranes; read-out: Radioligand Binding (Ki, nM) 1a (Bovine)
T3 sequence (P18130 1-466): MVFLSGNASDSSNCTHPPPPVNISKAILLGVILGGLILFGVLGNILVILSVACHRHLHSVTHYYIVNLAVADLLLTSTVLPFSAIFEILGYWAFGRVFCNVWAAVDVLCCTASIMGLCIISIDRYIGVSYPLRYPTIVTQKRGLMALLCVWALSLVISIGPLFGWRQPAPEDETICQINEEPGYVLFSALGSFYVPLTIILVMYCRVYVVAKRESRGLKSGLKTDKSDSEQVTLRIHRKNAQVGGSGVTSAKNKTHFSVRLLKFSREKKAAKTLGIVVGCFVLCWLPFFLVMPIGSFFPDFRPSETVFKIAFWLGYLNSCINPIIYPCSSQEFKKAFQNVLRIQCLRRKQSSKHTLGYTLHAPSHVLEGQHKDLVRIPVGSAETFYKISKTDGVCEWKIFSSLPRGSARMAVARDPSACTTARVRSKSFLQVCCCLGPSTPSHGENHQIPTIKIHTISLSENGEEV
Summary of the method: as §1

[4] = target: T4, α-1d adrenoreceptor (Rattus norvegicus, UniProt P23944); assay type: binding; conditions: [3H]-prazosin radioligand; cloned receptor in LTK cell membranes; read-out: Radioligand Binding (Ki, nM) 1d (Rat)
T4 sequence (P23944 1-561): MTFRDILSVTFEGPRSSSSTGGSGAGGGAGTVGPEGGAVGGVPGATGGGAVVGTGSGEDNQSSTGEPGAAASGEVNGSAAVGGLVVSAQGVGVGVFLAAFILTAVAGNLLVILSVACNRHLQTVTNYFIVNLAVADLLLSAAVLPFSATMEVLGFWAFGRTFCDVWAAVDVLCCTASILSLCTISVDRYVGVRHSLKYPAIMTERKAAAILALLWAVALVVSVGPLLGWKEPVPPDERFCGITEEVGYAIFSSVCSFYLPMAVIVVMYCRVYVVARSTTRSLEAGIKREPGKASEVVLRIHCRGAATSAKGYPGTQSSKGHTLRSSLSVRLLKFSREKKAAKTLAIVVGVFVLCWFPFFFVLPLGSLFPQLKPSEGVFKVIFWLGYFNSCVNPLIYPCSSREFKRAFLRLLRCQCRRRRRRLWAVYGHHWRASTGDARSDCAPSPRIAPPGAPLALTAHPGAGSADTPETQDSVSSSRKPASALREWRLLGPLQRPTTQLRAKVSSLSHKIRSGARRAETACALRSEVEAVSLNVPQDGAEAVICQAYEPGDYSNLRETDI
Summary of the method: as §1

| SMILES | Ki [1] | Ki [2] | Ki [3] | Ki [4] |
| --- | --- | --- | --- | --- |
| COc1cccc2c1[C@@H]1CN(CCCCn3c(=O)[nH]c4c(sc5ncc(-c6cccnc6)nc54)c3=O)C[C@@H]1CO2 [Example 61, 3-[4-((3aR,9bR)-cis-9-Methoxy-1,2,3,3a,4,9b-hexahydro-[1]-benzopyrano[3,4-c]pyrrol-2-yl)butyl]-8-(3-pyridyl)-pyrazino[2',3':4,5]thieno[3,2-d]pyrimidine-2,4(1H,3H)-dione dihydrochloride] | 0.152 nM | 8.85 nM | 0.15 nM | 0.336 nM |
| COc1cccc2c1[C@@H]1CN(CCCCn3c(=O)[nH]c4c(sc5ncc(-c6ccoc6)nc54)c3=O)C[C@@H]1CO2 [Example 62, 3-[4-((3aR,9bR)-cis-9-Methoxy-1,2,3,3a,4,9b-hexahydro-[1]-benzopyrano[3,4-c]pyrrol-2-yl)butyl]-8-(3-furyl)-pyrazino[2',3':4,5]thieno[3,2-d]pyrimidine-2,4(1H,3H)-dione dihydrochloride] | 983 nM | 1150 nM | 52 nM | 411 nM |
| COc1cccc2c1[C@@H]1CCN(CCCn3c(=O)[nH]c4c(sc5cccnc54)c3=O)C[C@H]1CO2 [Example 92, 3-[3-((4aS,10bR)-trans-10-Methoxy-1,3,4,4a,5,10b-hexahydro-2H-[1]-benzopyrano[3,4-c]pyrido-3-yl)propyl]-pyrido[2',3':4,5]thieno[3,2-d]pyrimidine-2,4(1H,3H)-dione dihydrochloride] | 3.85 nM | 45.1 nM | 2.2 nM | 18.5 nM |
| COc1cccc2c1[C@H]1CCN(CCCn3c(=O)[nH]c4c(sc5cccnc54)c3=O)C[C@@H]1CO2 [Example 93, 3-[3-((4aR,10bS)-trans-10-Methoxy-1,3,4,4a,5,10b-hexahydro-2H-[1]-benzopyrano[3,4-c]pyrido-3-yl)propyl]-pyrido[2',3':4,5]thieno[3,2-d]pyrimidine-2,4(1H,3H)-dione dihydrochloride] | 4.04 nM | 3.67 nM | 1.2 nM | 11.5 nM |
| COc1cccc2c1[C@H]1CCN(CCCCn3c(=O)[nH]c4c(sc5cccnc54)c3=O)C[C@@H]1CO2 [Example 94, 3-[4-((4aR,10bS)-trans-10-Methoxy-1,3,4,4a,5,10b-hexahydro-2H-[1]-benzopyrano[3,4-c]pyrido-3-yl)butyl]-pyrido[2',3':4,5]thieno[3,2-d]pyrimidine-2,4(1H,3H)-dione dihydrochloride] | 0.185 nM | 1.97 nM | 0.097 nM | 0.361 nM |
| COc1cccc2c1[C@H]1CCN(CCCCn3c(=O)[nH]c4c(sc5ncc(Cl)nc54)c3=O)C[C@@H]1CO2 [Example 96, 3-[4-((4aR,10bS)-trans-10-Methoxy-1,3,4,4a,5,10b-hexahydro-2H-[1]-benzopyrano[3,4-c]pyrido-3-yl)butyl]-8-chloro-pyrazino[2',3':4,5]thieno[3,2-d]pyrimidine-2,4(1H,3H)-dione dihydrochloride] | 0.816 nM | 10.4 nM | 0.211 nM | 0.816 nM |
| COc1ccc2sc3c(=O)n(CCCCN4CC[C@H]5c6c(OC)cccc6OC[C@@H]5C4)c(=O)[nH]c3c2n1 [Example 98, 3-[4-((4aS,10bR)-trans-10-Methoxy-1,3,4,4a,5,10b-hexahydro-2H-[1]-benzopyrano[3,4-c]pyrido-3-yl)butyl]-8-methoxy-pyrido[2',3':4,5]thieno[3,2-d]pyrimidine-2,4(1H,3H)-dione hydrochloride] | 1.02 nM | 2.65 nM | 0.121 nM | 0.324 nM |
| COc1cnc2sc3c(=O)n(CCCCN4CC[C@H]5c6c(OC)cccc6OC[C@@H]5C4)c(=O)[nH]c3c2n1 [Example 99, 3-[4-((4aS,10bR)-trans-10-Methoxy-1,3,4,4a,5,10b-hexahydro-2H-[1]-benzopyrano[3,4-c]pyrido-3-yl)butyl]-8-methoxy-pyrazino[2',3':4,5]thieno[3,2-d]pyrimidine-2,4(1H,3H)-dione hydrochloride] | 14.9 nM | 57.1 nM | 1.73 nM | 5.81 nM |
| COc1cccc2c1[C@@H]1CCN(CCCCn3c(=O)[nH]c4c(sc5ncc(-c6ccccc6)nc54)c3=O)C[C@H]1CO2 [Example 100, 3-[4-((4aS,10bR)-trans-10-Methoxy-1,3,4,4a,5,10b-hexahydro-2H-[1]-benzopyrano[3,4-c]pyrido-3-yl)butyl]-8-phenyl-pyrazino[2',3':4,5]thieno[3,2-d]pyrimidine-2,4(1H,3H)-dione hydrochloride] | 30.5 nM | 27 nM | 5.83 nM | 7.59 nM |
| COc1cccc2c1[C@@H]1CCN(CCCCn3c(=O)[nH]c4c(sc5ccc(-c6ccccc6)nc54)c3=O)C[C@H]1CO2 [Example 101, 3-[4-((4aS,10bR)-trans-10-Methoxy-1,3,4,4a,5,10b-hexahydro-2H-[1]-benzopyrano[3,4-c]pyrido-3-yl)butyl]-8-phenyl-pyrido[2',3':4,5]thieno[3,2-d]pyrimidine-2,4(1H,3H)-dione dihydrochloride] | 1.27 nM | 8.41 nM | 0.063 nM | 0.597 nM |
| COc1cccc2c1[C@@H]1CCN(CCCCn3c(=O)[nH]c4c(sc5nc(Cl)ccc54)c3=O)C[C@H]1CO2 [Example 102, 3-[4-((4aS,10bR)-trans-10-Methoxy-1,3,4,4a,5,10b-hexahydro-2H-[1]-benzopyrano[3,4-c]pyrido-3-yl)butyl]-7-chloro-pyrido[3',2':4,5]thieno[3,2-d]pyrimidine-2,4(1H,3H)-dione hydrochloride] | 1.89 nM | 6.26 nM | 0.113 nM | 0.651 nM |
| COc1ccc2c(n1)sc1c(=O)n(CCCCN3CC[C@H]4c5c(OC)cccc5OC[C@@H]4C3)c(=O)[nH]c12 [Example 103, 3-[4-((4aS,10bR)-trans-10-Methoxy-1,3,4,4a,5,10b-hexahydro-2H-[1]-benzopyrano[3,4-c]pyrido-3-yl)butyl]-7-methoxy-pyrido[3',2':4,5]thieno[3,2-d]pyrimidine-2,4(1H,3H)-dione hydrochloride] | 0.909 nM | 3.33 nM | 0.115 nM | 0.243 nM |
